# Experimental data as given in patent US8106056B2, “Combination preparations comprising bifeprunox and a dopamine agonist” (Solvay Pharmaceuticals B.V., priority 2006, dated 2012).
# “Also recorded” adds a separate entry of the source.
# How the values were obtained:
# [1] = test system: MPTP-treated common marmosets; assay: Locomotor activity in MPTP-treated common marmosets (automated activity cages); assay type: in vivo, common marmosets (Callithrix jacchus)
# Procedure: (§1) These animals were L-DOPA responsive and not test drug naive. They had not been experimentally primed for dyskinesia although some dyskinesia was present.
# (§2) Drug treatment: Bifeprunox mesylate was suspended in 10% sucrose solution and administered orally by gavage in a volume of 2.0 ml/kg. L-DOPA: L-3,4-Dihydroxyphenylalanine (L-dopa) methylester (Sigma Chemical Co, UK) was dissolved in 10% sucrose solution and administered orally by gavage in a volume of 2.0 ml/kg. Carbidopa: (Merck, Sharp and Dohme, UK) was administered orally as a suspension in 10% sucrose solution in a volume of 2.0 ml/kg. Domperidone: (2.0 mg/kg po, Sigma UK) was dissolved in 10% sucrose and administered 60 min prior to bifeprunox in a volume of 2.0 ml/kg, Bifeprunox (4 or 8 mg/kg po free base) or its vehicle (10% sucrose) was administered alone and in combination with L-DOPA (7.5 mg/kg po free base, given in combination with carbidopa, 12.5 mg/kg po) to MPTP-treated marmosets (n=6). Animals were treated with bifeprunox or its vehicle 90 min prior to administration of L-DOPA or its vehicle administration. Carbidopa was administered 30 minutes prior to administration of L-DOPA. Domperidone was administered 60 min prior to bifeprunox administration.
# Behavioral Studies: In all studies, animals were acclimatised to behavioral study cages for 1 hour prior to treatment. The animals were placed individually into activity cages (50×60×70 cm) fitted with a clear perspex door to allow clear visibility for observation. Each cage was equipped with 8 horizontally orientated infrared photocell emitters and their corresponding detectors arranged so as to permit maximum assessment of movement. Locomotor activity was assessed as the number of light beam interruptions caused by movement of the animals accumulated in 10-minute intervals for up to 7 hours. The animals were allowed a 60-minute acclimatisation period in the activity cages during which baseline activity was assessed, before drug administration. ‘On’ Threshold was defined as 3 times baseline activity in MPTP-treated marmosets. Hyperactivity was defined as 3 times normal activity in naive marmosets. ‘On’ time was the period of time in minutes that activity was above the ‘On’ Threshold. Animals were treated with bifeprunox, vehicle and/or L-DOPA. Following drug treatment, animals were assessed for locomotor activity and disability as described below for up to 6 h following drug administration. The animals used in the study were in the automated activity cages for no longer than 8 h on any study day, and were allowed at least 3 days recovery period between drug treatments to ensure appropriate animal welfare consideration. The locomotor activity, motor disability and presence of dyskinesia were assessed as follows:
# Locomotor Activity: In all studies the animals were acclimatised to behavioral study cages for 1 hour prior to bifeprunox treatment. Animals were then treated with appropriate drugs. Following treatment, animals were assessed for antiparkinsonian activity for up to 6 h using automated activity cages and by the rating of disability by an observer blinded to the treatment.
# (§3) Data and Statistical Analysis: Data are presented as median locomotor activity (counts/30 min) or disability score (score over 10 min/30 min) over the 7 hour period of the experiment, or as total locomotor activity (counts/420 min) or disability (total score over 420 min). Data were analysed by Kruskall Wallis ANOVA and post-hoc Man-Whitney test where appropriate. Analyses were corrected for multiple comparisons using the formula: Acceptable probability=α/number of comparisons where α=5% A separate group of animals from those used in the study were treated with vehicle and were used for statistical comparison.
# [2] = test system: MPTP-treated common marmosets; assay: Disability rating in MPTP-treated common marmosets; assay type: in vivo, common marmosets (Callithrix jacchus)
# Procedure: as §1, §2
# Disability and dyskinesia scores: Disability and dyskinesia was assessed before, and during the last 10 minutes in every 30 min period after bifeprunox administration for up to 6 hours following drug treatment. The following disability rating scales were used:
# Rating of disability: The disability of animals was scored as follows; alertness (normal 0, sleepy 2); reaction (normal 0, reduced 1, slow 2, absent 3); checking movements (present 0, reduced 1, absent 2); attention and eye movements (normal 0, abnormal 1); posture (normal 0, abnormal trunk+1, abnormal limbs+1, abnormal tail+1, or grossly abnormal 4); balance/co-ordination (normal 0, impaired 1, unstable 2, spontaneous falls 3); vocalisation (normal 0, reduced 1, absent 2); motility (normal 0, bradykinesia/hyperkinesia 1, akinesia/hyperkinesia 2). Sedation was noted if present.
# as §3
# dopamine D2/3 receptors = conditions: cited from earlier work
# [3] = target: T1, serotonin 5-HT1A receptors (Homo sapiens, UniProt P08908); conditions: cited from earlier work
# T1 sequence (P08908 1-422): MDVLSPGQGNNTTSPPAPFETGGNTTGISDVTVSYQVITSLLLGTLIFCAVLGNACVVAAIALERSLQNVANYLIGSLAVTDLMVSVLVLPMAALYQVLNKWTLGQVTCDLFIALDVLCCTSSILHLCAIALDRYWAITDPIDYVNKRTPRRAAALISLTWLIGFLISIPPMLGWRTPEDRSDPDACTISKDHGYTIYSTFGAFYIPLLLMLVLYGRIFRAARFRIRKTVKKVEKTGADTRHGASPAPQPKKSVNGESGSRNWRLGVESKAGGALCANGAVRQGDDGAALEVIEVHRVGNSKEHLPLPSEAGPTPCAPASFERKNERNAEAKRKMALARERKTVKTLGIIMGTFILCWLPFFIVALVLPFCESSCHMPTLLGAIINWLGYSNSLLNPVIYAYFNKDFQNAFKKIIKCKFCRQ
# [4] = L-DOPA 7.5 mg/kg po plus carbidopa 12.5 mg/kg po 30 min prior
# [5] = bifeprunox 4 mg/kg po 90 min prior to L-DOPA 7.5 mg/kg po plus carbidopa 12.5 mg/kg po
# [6] = bifeprunox 4 mg/kg po alone, p<0.05, Mann Whitney
# [7] = bifeprunox 8 mg/kg po 90 min prior to L-DOPA 7.5 mg/kg po plus carbidopa 12.5 mg/kg po
# [8] = bifeprunox 8 mg/kg po alone, p<0.05, Mann Whitney
smiles,measurement,setting,value
"N[C@@H](Cc1ccc(O)c(O)c1)C(=O)O [L-DOPA, L-3,4-Dihydroxyphenylalanine, reference compound]",locomotor activity compared to vehicle administration,[1]; [4],increased
same,median duration of activity (locomotor On-Time),[1]; [4],180 min/420 min
same,Total locomotor activity and locomotor 'on-time' versus vehicle,"[1]; L-DOPA 7.5 mg/kg po plus carbidopa 12.5 mg/kg po, p<0.05, Mann Whitney",greater than vehicle-treated animals
same,disability 'On-Time',[2]; [4],120 min/420 min
same,time at which peak disability score was reached after administration (median),[2]; [4],75 min
same,disability scores compared to vehicle administration,"[2]; L-DOPA 7.5 mg/kg po plus carbidopa 12.5 mg/kg po 30 min prior, p<0.05, Mann Whitney",decreased
"O=c1[nH]c2cccc(N3CCN(Cc4cccc(-c5ccccc5)c4)CC3)c2o1 [bifeprunox, 7-[4-([1,1′-biphenyl]-3-ylmethyl)-1-piperazinyl]-2(3H)-benzoxazolone]",functional activity at dopamine D2/3 receptors,dopamine D2/3 receptors,partial agonist
same,functional activity at serotonin 5-HT1A receptors,[3],partial agonist; also recorded: full agonism
same,Locomotor activity compared to L-DOPA alone and bifeprunox (4 mg/kg po) alone,[1]; [5],tended to increase
same,locomotor On-Time compared to the single treatments,[1]; [5],slightly greater than that seen after L-DOPA alone and bifeprunox
same,locomotor activity compared to baseline,[1]; [5],increased
same,median duration of activity (locomotor On-Time),[1]; [5],390 min/420 min
same,locomotor activity compared to vehicle administration,[1]; bifeprunox 4 mg/kg po alone,increased
same,median duration of activity (locomotor On-Time),[1]; bifeprunox 4 mg/kg po alone,240 min/420 min
same,Total locomotor activity and locomotor 'On-Time' versus vehicle,[1]; [6],greater than in vehicle-treated animals
same,Total locomotor activity and duration of activity (On-time) compared to bifeprunox (8 mg/kg po) alone and L-DOPA plus carbidopa alone,[1]; [7],not different
same,locomotor On-Time compared to bifeprunox alone,[1]; [7],slightly shorter than bifeprunox alone
same,locomotor activity compared to baseline,[1]; [7],increased
same,median duration of activity (locomotor On-Time),[1]; [7],300 min/420 min
same,locomotor activity compared to vehicle administration,[1]; bifeprunox 8 mg/kg po alone,increased
same,median duration of activity (locomotor On-Time),[1]; bifeprunox 8 mg/kg po alone,345 min/420 min
same,Total locomotor activity versus vehicle,[1]; [8],greater than vehicle-treated animals
same,total locomotor activity and locomotor 'On-Time' compared to L-DOPA alone,[1]; bifeprunox 4 or 8 mg/kg po given in combination with L-DOPA,tended to increase
same,duration of activity ('on'-time) following L-DOPA,[1]; co-administration with L-DOPA,increased
same,peak locomotor activity as observed after L-DOPA alone,"[1]; combined treatment with L-DOPA, hyperactivity was not observed",reduced
same,Duration of activity (disability On-Time),[2]; [5],360 min/420 min
same,Duration of activity (disability On-Time) compared to bifeprunox alone,[2]; [5],tended to increase
same,disability scores over the period of the study,[2]; [5],decreased
same,Median duration of activity (disability On-Time),[2]; bifeprunox 4 mg/kg po alone,210 min/420 min
same,disability scores compared to vehicle administration,[2]; [6],decreased
same,Duration of activity (disability On-Time),[2]; [7],165 min/420 min
same,Duration of activity (disability On-Time) compared to bifeprunox (8 mg/kg po) alone or L-DOPA plus carbidopa,[2]; [7],not different
same,disability scores,[2]; [7],decreased
same,Duration of activity (disability On-Time),[2]; bifeprunox 8 mg/kg po alone,225 min/420 min
same,Total decrease in disability versus vehicle,[2]; bifeprunox 8 mg/kg po alone,lower than vehicle-treated animals
same,disability scores compared to vehicle treatment,[2]; [8],decreased
